For assay [1], the system named is Split Mel aptamer – 0nt (DNA, aptamer) GCACACCGATGGCGGTCCTGT/TTAGGGGGTGTGC
The assay can be described thus: ITC. The settings on record: Mg2+ 40 mM (MgCl2); 20 mM Tris acetate pH 7.9, 25 °C; poorly defined fit (ΔH -335 ±751 kJ/mol).

In assay [2] the test system is Dm/Em (DNA, aptamer) CTGTTCAGCGATGCACACCGATGGCGGTCCTGTAGGT/ACCTTTAGGGGGTGTGCCACCCATGTTCCTGA
Kind of assay: DNAzyme cleavage of FAM/BHQ1 substrate, fluorescence. Particulars: Mg2+ 40 mM (MgCl2); apparent; 20 mM Tris acetate pH 7.9, 1 µM each strand, 1 µM substrate S, BSA.

Assay [3] has as its system Nm/Tm/Pm (DNA, aptamer) TAATACGACTCACTATAGGGATCCCGACTGGCGAGAGCCAGGTAACGAATGGATCC/GGATCCATTCGTTACCTGGCTCTCGCCAGTCGGGATCCCTATAGTGAGTCTTAGGGGGTGTGC/GCACACCGATGGCGGTCCTGTGTATTA
The assay can be described thus: transcription activation, MG aptamer fluorescence. Particulars: Mg2+ 20 mM (MgCl2); 1×RNAPol reaction buffer, 0.2 µM strands, 0.125-2 mM Mel, 35 °C.

The test system of assay [4] is Split Mel aptamer – 4nt (DNA, aptamer) GCACACCGATGGCGGTCCTGTAGGT/ACCTTTAGGGGGTGTGC
Kind of assay: ITC. The settings on record: Mg2+ 40 mM (MgCl2); 20 mM Tris acetate pH 7.9, 25 °C; one set of sites fit.

The subject of assay [5] is Gm/Hm (DNA, aptamer) AGGGTGGTGGCGAAAGCACACCGATGGCGGTCCTGTAGGT/ACCTTTAGGGGGTGTGCAAACGCCTAGGTTGGGT
Kind of assay: thrombin coagulation inhibition, light scattering. Particulars: 1 µM Gm/Hm, 5 nM thrombin, 10 mg/ml fibrinogen, 10-1000 µM Mel, 25 °C.

Assay [6] deals with Intact Mel aptamer (DNA, aptamer) GCACACCGATGGCGGTCCTGTTTAGGGGGTGTGC
The assay can be described thus: ITC. The settings on record: Mg2+ 40 mM (MgCl2); 20 mM Tris acetate pH 7.9, 25 °C; one set of sites fit.

For assay [7], the system named is Split Ade aptamer – 3nt (Ga/Ha; d1/c/t1+d2/c'/t2) (DNA, aptamer) AGGGTGGTGGCGAACTGCGGAGGAAGGT/ACCTGGGGGAGTATGATCGCCTAGGTTGGGT
Kind of assay: stated; ADA-driven loss of thrombin inhibition. The settings on record: adenosine 1.25-1.8 mM converted by ADA.

Assay [8] has as its system R1 (MG RNA aptamer) (RNA, aptamer) GGAUCCCGACUGGCGAGAGCCAGGUAACGAAUGGAUCC
The assay can be described thus: fluorescence (ex 632 nm, em 650 nm). Particulars: Mg2+ 20 mM (MgCl2); 1×RNAPol reaction buffer, 5 mM DTT, 2 µM MG, 35 °C, during transcription.

Assay [9] deals with Na/Ta/Pa (DNA, aptamer) ACCTGGGGGAGTATTAATACGACTCACTATAGGGTTCTCCTCTGCGTTGTTGTTTG/CAAACAACAACGCAGAGGAGAACCCTATAGTGAGTCG/TATTATGCGGAGGAAGGT
Kind of assay: transcription activation, F/Q strand displacement fluorescence. The settings on record: Mg2+ 20 mM (MgCl2); 1×RNAPol reaction buffer, 0.2 µM strands, 0.125-2 mM Ade, 33 °C.

Assay [10] relates to Split Ade aptamer – 0nt (d1/t1+d2/t2) (DNA, aptamer) AGGGTGGTGGCGTGCGGAGGAAGGT/ACCTGGGGGAGTATCGCCTAGGTTGGGT
Kind of assay: ITC. The settings on record: Mg2+ 40 mM (MgCl2); 40 mM Tris acetate pH 7.9, 25 °C; one set of sites fit.

Assay [11] relates to Split Ade aptamer – 3nt (Ga/Ha; d1/c/t1+d2/c'/t2) (DNA, aptamer) AGGGTGGTGGCGAACTGCGGAGGAAGGT/ACCTGGGGGAGTATGATCGCCTAGGTTGGGT
The assay can be described thus: ITC. Particulars: Mg2+ 40 mM (MgCl2); 40 mM Tris acetate pH 7.9, 25 °C; one set of sites fit.

As for `Nc1nc(N)nc(N)n1`, the Kd in [1] was 11.1 ± 2.09 µM; in assay [4] it was 0.890 ± 0.123 µM; in assay [6] it was 0.800 ± 0.139 µM. For the same compound, the K0.5 in [2] is recorded as 162 ± 4.8 µM. In addition, the binding result in assay [3] and in assay [5] was “yes” each time.

As for `O=c1[nH]cnc2c1ncn2[C@@H]1O[C@H](CO)[C@@H](O)[C@H]1O`, in assay [7], the binding entry is listed as “no”.

On to `CN(C)c1ccc(C(=C2C=CC(=[N+](C)C)C=C2)c2ccccc2)cc1`, for which the binding result in [8] is on record as “yes”.

As for `Nc1ncnc2c1ncn2[C@@H]1O[C@H](CO)[C@@H](O)[C@H]1O`, the binding entry in [9] is reported as “yes”. The Kd came out at 14.1 ± 1.3 µM in assay [10] and 7.28 ± 0.82 µM in assay [11].

As usually defined, the Kd is the equilibrium constant for the complex coming apart.

Values taken from paper PMC12863195 (2026).
